# In US6866858B2, “Method and compositions for attracting mosquitoes” (BioSensory, Inc., priority 2000, dated 2005):
# “And” between values parts separate entries of the source, which are not always exact repeats. Identical values can stand only once.
# Test system: Aedes taeniorhyncus mosquitoes
# Assay: Outdoor screened cage mosquito capture test with CO2 collection jar and attractant
# Type: in vivo
# Conditions: for Average captured: average of three replicate tests; for Average captured / Total captured: 250 μL attractant + 500 cc/min CO2, 1000 mosquitoes per test; for Mosquitoes captured: single replicate test, 250 μL attractant on fibrous absorbent in CFG 6 jar with 500 cc/min CO2, 1000 mosquitoes introduced, after several hours; for Total captured: sum of three replicate tests; for Average increase in capture over control: versus CO2-only control (average 334 captured)
# Experimental: The following tests were conducted by the United States Department of Agriculture in Florida in a large outdoor screened cage of a size of approximately 30 ft.×60 ft.×20 ft. (9.144×18.288×6.096 meters). Into approximately the center of the base of the cage was placed a CFG 6 Collection Jar of American Biophysics providing 500 cc/min CO2. Also placed in the CFG-6 Jar was a fibrous absorbent into which had been absorbed 250 μL of the test attractant compound. There were then introduced into the cage, from the periphery thereof, 1000 Aedes taeniorhyncus mosquitoes. After a period of several hours the collection jar was examined to determine the number of mosquitoes captured. As controls, similar tests were run with the CF 6 Collection jar without any attractant compound, i.e. with only CO2. Three replicate tests were run with each test attractant compound. The compound 1-octyn-3-ol was employed as the attractant compound of this invention and 1-octenol as an example of a prior art attractant.
Structure (SMILES),Average captured,Mosquitoes captured,Total captured,Average increase in capture over control,more mosquitoes captured than the prior art 1-octen-3-ol attractant (compared with 1-octen-3-ol in the same test)
"C=CC(O)CCCCC (stereo not drawn) [1-octen-3-ol, reference compound]",Average captured: 568,624 and 560 and 520,1704,Average increase in capture over control: 234,–
C#CC(O)CCCCC (stereo not drawn) [1-octyn-3-ol],Average captured: 735,779 and 599 and 826,2204,Average increase in capture over control: 401,over 71%
